Measured values published in ChEMBL document CHEMBL2046413, “Iridoid glucosides and a C₁₃-norisoprenoid from Lamiophlomis rotata and their effects on NF-κB activation” (Bioorg Med Chem Lett, 2012).

Assays:
[1] = system: HEK293; test: Inhibition of LPS-induced NF-KB transcriptional activity expressed in HEK-293 cells at 1 ug/ml after 4 hrs by luciferase reporter gene assay relative to LPS-treated group; assay type: cell-based
[2] = system: HEK293; test: Inhibition of LPS-induced NF-KB transcriptional activity expressed in HEK-293 cells at 100 ug/ml after 4 hrs by luciferase reporter gene assay relative to LPS-treated group; assay type: cell-based
[3] = system: HEK293; test: Inhibition of LPS-induced NF-KB transcriptional activity expressed in HEK-293 cells at 10 ug/ml after 4 hrs by luciferase reporter gene assay relative to LPS-treated group; assay type: cell-based
[4] = system: HEK293; test: Inhibition of NF-KB production in human HEK293 cells by BCA protein assay; assay type: functional, cell-based

Structure (SMILES)	NF-κB luciferase activity relative to LPS-treated group [1]	NF-κB luciferase activity relative to LPS-treated group [2]	RLU [3]	inhibition [4]
COC(=O)C1=CO[C@@H](O[C@@H]2O[C@H](CO)[C@@H](O)[C@H](O)[C@H]2O)[C@H]2[C@@H]1[C@H](OC(=O)c1cc(OC)c(O)c(OC)c1)C[C@]2(C)OC(C)=O	0.12	0.42	0.08	
COC(=O)C1=CO[C@@H](O[C@@H]2O[C@H](CO)[C@@H](O)[C@H](O)[C@H]2O)[C@H]2[C@@H]1[C@H](O)[C@H](O)[C@@]2(C)O	0.37	0.38	0.15	
COC(=O)C1=CO[C@@H](O[C@@H]2O[C@H](CO)[C@@H](O)[C@H](O)[C@H]2O)[C@H]2[C@@H]1[C@H](O)[C@@H](Cl)[C@]2(C)O	0.05	0.22	0.19	
COC(=O)C1=CO[C@@H](O[C@@H]2O[C@H](CO)[C@@H](O)[C@H](O)[C@H]2O)[C@@H]2C(C)=C[C@@H](O)[C@]12O	0.06	0.24	0.18	Dose-dependent effect
COC(=O)C1=CO[C@@H](O[C@@H]2O[C@H](CO)[C@@H](O)[C@H](O)[C@H]2O)[C@@H]2C(C)=C[C@@H](O)[C@H]12	0.5	0.68	0.59	
COC(=O)C1=CO[C@@H](O[C@@H]2O[C@H](CO)[C@@H](O)[C@H](O)[C@H]2O)[C@@H]2[C@H](C)[C@@H](O)C[C@H]12	0.14	0.26	0.13	
COC(=O)C1=CO[C@@H](O[C@@H]2O[C@H](CO)[C@@H](O)[C@H](O)[C@H]2O)[C@H]2[C@@H]1[C@H](O)C[C@]2(C)O	0.39	0.31	0.21	
COC(=O)C1=CO[C@@H](O[C@@H]2O[C@H](CO)[C@@H](O)[C@H](O)[C@H]2O)[C@@H]2[C@@](C)(O)[C@H](O)[C@@H](O)[C@]12O	0.18	0.31	0.34	
COC(=O)C1=CO[C@@H](O[C@@H]2O[C@H](CO)[C@@H](O)[C@H](O)[C@H]2O)[C@H]2[C@@H]1[C@H](OC(C)=O)C[C@]2(C)O	0.06	0.11	0.13	
COC(=O)C1=CO[C@@H](O[C@@H]2O[C@H](CO)[C@@H](O)[C@H](O)[C@H]2O)[C@@H]2[C@@]3(C)O[C@H]3[C@@H](O)[C@]12O	0.15	0.36	0.14	
COC(=O)C1=CO[C@@H](O[C@@H]2O[C@H](CO)[C@@H](O)[C@H](O)[C@H]2O)[C@@H]2[C@@H](C)[C@@H](O)C[C@H]12	0.66	0.56	0.56	
COC(=O)C1=CO[C@@H](O[C@@H]2O[C@H](COC(=O)c3cc(OC)c(O)c(OC)c3)[C@@H](O)[C@H](O)[C@H]2O)[C@H]2[C@@H]1[C@H](O)[C@@H]1O[C@]21C	0.55	0.48	0.32	
COC(=O)C1=CO[C@@H](O[C@@H]2O[C@H](CO)[C@@H](O)[C@H](O)[C@H]2O)[C@@H]2[C@@](C)(O)[C@@H](O)[C@@H](O)[C@]12O	0.56	0.49	0.34	
COC(=O)C1=CO[C@@H](O[C@@H]2O[C@H](CO)[C@@H](O)[C@H](O)[C@H]2O)[C@H]2[C@@H]1[C@H](O)[C@H](O)[C@]2(C)O	0.23	0.41	0.19	
COC(=O)C1=CO[C@@H](O[C@@H]2O[C@H](CO)[C@@H](O)[C@H](O)[C@H]2O)[C@H]2[C@@H]1[C@H](O)[C@@H]1O[C@]21C	0.23	0.42	0.46	
C=C1C[C@@H](O)[C@@H]2C(C(=O)OC)=CO[C@@H](O[C@@H]3O[C@H](CO)[C@@H](O)[C@H](O)[C@H]3O)[C@H]12	0.26	0.4	0.43	
C=CC(C)(O)CC/C=C(\C)C(=O)O[C@@H]1C[C@](C)(OC(C)=O)[C@H]2[C@H](O[C@@H]3O[C@H](CO)[C@@H](O)[C@H](O)[C@H]3O)OC=C(C(=O)OC)[C@H]21 (stereo partly specified)	0.25	0.31	0.21	
COC(=O)C1=CO[C@@H](O[C@@H]2O[C@H](CO)[C@@H](O)[C@H](O)[C@H]2O)[C@H]2[C@@H]1[C@H](O)C[C@]2(C)OC(C)=O	0.13	0.34	0.4	
COC(=O)C1=CO[C@@H](O[C@@H]2O[C@H](CO)[C@@H](O)[C@H](O)[C@H]2O)[C@@H]2[C@H](C)CC[C@H]12	0.23	0.62	0.44	Dose-dependent effect
CCCCO[C@@H]1C=C(C)[C@H]2[C@H](O[C@@H]3O[C@H](CO)[C@@H](O)[C@H](O)[C@H]3O)OC=C(C(=O)OC)[C@H]21	0.15	0.48	0.38	Dose-dependent effect
C[C@]12CCC(=O)C=C1CC[C@@H]1[C@@H]2[C@@H](O)C[C@@]2(C)[C@H]1CC[C@]2(O)C(=O)CO	0.26	0.45	0.32	
